Series [1] is described as follows: Acute toxicity test (i.v. administration in mice), LD50 by Probit method. The note with it: i.v. into tail vein, male mice, 15 days observation. Type of series: in vivo. As for the experimental part:
Groups of 5 […] male mice, of 4 weeks of age and weighing 14-18 g, starved overnight before trial, were treated with serial doses of the SPA-S-753-cholesterol sulphate complex (prepared as described in Example 1) and with the not complexed SPA-S-753 for comparison. The two products, dissolved in 5% glucose solution and diluted to the required concentrations, were injected by i.v. route into a tail vein, at a constant volume of 2 ml/kg and over the time of 30-40 seconds. The animals were then kept under observation for 15 days, while changes in behaviour and mortality were recorded.

Series [2] in a line: Pharmacokinetics test (i.v.): serum and kidney concentrations, microbiological determination. The settings on record: 2 hours after single i.v. dose equivalent to 1.25 mg/kg. Type of series: in vivo, Sprague-Dawley rats. On the procedure:
Two groups of 5 Sprague-Dawley male rats were treated by i.v. route with a single dose equivalent to 1.25 mg/kg of SPA-S-753-cholesterol sulphate complex and of not complexed SPA-S-753 for comparison, with a method similar to that described above. 2 hours following treatments the animals were killed, and the serum and kidneys were collected according to the ordinary procedures. The antibiotic was determined by the microbiological method on the pooled serums and organ homogenates from the 2 groups, the Saccharomyces cerevisiae growth inhibition zones being measured against those produced by antibiotic standard solutions (PYG-agar medium, incubation of 18 h at 30° C.). The antibiotic concentrations found were as follows: 2.6 μg/ml in serum and 4.0 μg/g in the case of SPA-S-753 alone, and 2.4 μg/ml in serum and 0.8 μg/g in the kidneys in the case of SPA-S-753-cholesterol sulphate complex.

The nature of series [3]: Precipitation at the site of injection after intramuscular administration and tolerance. It counts as in vivo.
The conditions of series [4]: compared with partricin; cited from earlier work.
For series [5] the following is noted: cited from earlier work.

Take “N'-dimethylaminoacetylpartricin A dimethylaminoethylamide diaspartate [SPA-S-753]”: the “acute toxicity index, lethal dose in 50% of the animals (LD50)” value in series [1] is 46 to 64 mg/kg. The “antibiotic concentration in kidneys” value in series [2] (organ homogenates) was determined as 4.0 µg/g. Moreover, the “antibiotic concentration in serum” value in series [2] (pooled serum) was determined as 2.6 µg/mL. Further, in series [3], the “precipitation on intramuscular administration” value is “partial precipitation”. The tolerance result in series [3] (systemic and local, versus uncomplexed SPA-S-753) is “negative influence on tolerance of the product”. In series [4], the toxicity entry is “definitely much lower than that of partricin”. The water-solubility result in series [5] was “high water-solubility”.

Source of the values: patent US6143726A, “Complexes of N'-dimethylaminoacetylpartricin A dimethylaminoethylamide, or the salts thereof, and cholesterol 3-sulphate” (priority 1996, dated 2000).
